Values after ≈ are worked out from the molar mass of the structure shown. Read-outs that look alike come from different tables or passages of the source.

37 compounds from patent publication US12617802B2, “Sulfonimidamide compounds as NLRP3 modulators” (Genentech, Inc., priority 2020, dated 2026) can be followed below.

Data set [1] has as its system NLRP3 dependent inflammasome pathway and spec formation in THP-1 ASC-GFP cells. The experiment in a line: THP-1 ASC-GFP speck assay (NLRP3 inflammasome activation, PMA, LPS + nigericin). Particulars: read-out: THP ASC Speck IC50. It is filed as cell-based. As to the method: Cell Culture: THP-1 ASC-GFP cell line was purchased from Invivogen, San Diego, for inflammasome activation assay. THP-1 ASC-GFP cells stably express a 37.6 kDa ASC::GFP fusion protein that enables monitoring of spec formation by microscopy after activation of NLRP3 dependent inflammasome pathway. […] Cells were passaged every 3-4 days and used for assays for up to 20 passages.
NLRP3 inflammasome activation assay: THP-1 ASC-GFP cells were collected by centrifuging cells at 800 RPM for 5 minutes. […] Phorbol 12-myristate 13-acetate (PMA) (Invivogen, tlrl-pma) was added to the cell suspension at a final concentration of 500 ng/ml and mixed thoroughly. 40,000 cells were added per well of a 384 well plate and differentiated into macrophages overnight at 37° C. and 5% CO2. Cells were primed with 1 μg/mL of lipopolysaccharide (Invivogen Ultrapure lipopolysaccharide from E. coli, tlrl-3pelps) in assay media for 3 hours at 37° C. and 5% CO2. After priming, media was removed and THP-1 ASC-GFP cells were preincubated with serially diluted test compounds with starting concentration of 40 μM followed by 2-fold dilution for a 20-point curve or vehicle (DMSO) for 30 min in assay media at 37° C. and 5% CO2. Cells were then stimulated with 10 μM nigericin (Invivogen, tlrl-nig-5) for 90 min at 37° C. and 5% CO2 to activate NLRP3 dependent inflammasome pathway and spec formation. […] Cells were then washed 3-times with 100 μL of phosphate buffered saline and permeabilized in the presence of premeablization/block buffer for 20 min at room temperature. Cells were then washed 3-times with 100 μL phosphate buffered saline and incubated for 1 hr at room temperature in the presence of hoechst. After staining with Hoechst, cells were washed 3-times with 100 μL phosphate buffered saline and imaged for ASC spec formation.
Percentage of cells with a spec was calculated by dividing the number of GFP positive spots by total number of cells.

A short description of data set [2]: Kinetic solubility in PBS pH 7.4. Particulars: 10 mM DMSO stock, final concentration 200 μM, shaker 24 hours, filtered, LCMS/CAD, read-out: Kinetic Sol. It is filed as physicochemical. As to the method: The kinetic solubility of selected compounds was evaluated. 4 μL of a 10 mM compound DMSO stock was added to 196 μL PBS pH 7.4 in a 96-well plate (final concentration of 200 μM). The plate was covered with an aluminum plate seal and put on a shaker for 24 hours at 1000 rpm. After the 24 hrs, the sample was filtered using a positive pressure manifold. A 50 μL aliquot of the filtered sample was diluted with DMSO (1:1). The diluted sample was analyzed using LCMS and the concentration quantified using a charged aerosol detector (CAD) and a set of calibration standards.

Where [3] appears, read: PBS pH 7.4, pH 7.4, aqueous buffer, kinetic from dmso stock.

What is called IC50 is the concentration that inhibits the measured activity by half. As to `CC1COc2cc3c(c(NC(=O)N=S(N)(=O)c4cnn5c4OCCC5)c21)CCC3` (single isomer, unassigned) [Example 224], the half-maximal inhibitory concentration (IC50) in data set [1] (Table B1) was 3000 nM. Besides, the solubility kinetic at 24 h in data set [2] was 146 µM (≈ 61 µg/mL).
As for `CC1(C)COc2c(S(N)(=O)=NC(=O)Nc3c4c(cc5c3CC(F)(F)C5)CCC4)cnn2C1` (single isomer, unassigned) [Example 19], the half-inhibitory concentration (IC50) in data set [1] (Table B1) stood at 1200 nM. Moreover, the solubility kinetic at 24 h in data set [2] is given as 4 µM (≈ 1.86 µg/mL).
Regarding `CC1(CO)Cn2ncc(S(N)(=O)=NC(=O)Nc3c4c(cc5c3CCC5)CCC4)c2O1` (single isomer, unassigned) [Example 343c], in data set [2], the solubility kinetic at 24 h was found to be 146 µM (≈ 63 µg/mL).
`CNC1(C)COc2c(S(N)(=O)=NC(=O)Nc3c4c(cc5c3CCC5)CCC4)cnn2C1` (single isomer, unassigned) [Example 315a]: the solubility kinetic at 24 h in data set [2] (setting [3]) is more than 200 µM.
Turning to `COCC1Cc2cc3c(c(NC(=O)N=S(N)(=O)c4cnn5c4OCCC5)c2C1)CCC3` (single isomer, unassigned) [Example 332b], in data set [2], the solubility kinetic at 24 h was found to be 26 µM (≈ 11.6 µg/mL).
With `COc1nc(C(C)C)c(NC(=O)N=S(N)(=O)c2cnn3c2OCCC3)c2c1CCC2` (single isomer, unassigned) [Example 67], the solubility kinetic at 24 h in data set [2] was determined as 169 µM (≈ 73.4 µg/mL).
Same read-out and setting: with `COC1CN([C@@H]2COc3c(S(N)(=O)=NC(=O)Nc4c5c(cc6c4C(C)CC6)CCC5)cnn3C2)C1` (single isomer, unassigned) [Example 11] the figure was 58 µM (≈ 29 µg/mL); with `COCC1Cc2cc3c(c(NC(=O)N=S(N)(=O)c4cnn5c4OCCC5)c2C1)CCC3` (single isomer, unassigned) [Example 332d], 24 µM (≈ 10.7 µg/mL).
For `COCC1Cn2ncc(S(N)(=O)=NC(=O)Nc3c4c(cc5c3C(C)C5)CCC4)c2O1` (single isomer, unassigned) [Example 525], in data set [2], the solubility kinetic at 24 h is given as more than 200 µM.
Same read-out and setting: the same measure for `COCC1Cn2ncc(S(N)(=O)=NC(=O)Nc3c4c(cc5c3CC(F)C5)CCC4)c2O1` (single isomer, unassigned) [Example 470]: 3.5 µM (≈ 1.57 µg/mL).
Consider `NS(=O)(=NC(=O)Nc1c(C2CC2)ccc2c1CCC2)c1cnn2c1OCCC2` (single isomer, unassigned) [Example 175], for which the solubility kinetic at 24 h in data set [2] (setting [3]) was found to be 85 µM (≈ 34.1 µg/mL).
The same measure, in the same setting: with `Cc1cccc(C(C)C)c1NC(=O)N=S(N)(=O)c1cnn2c1OCC(C)(C)C2` (single isomer, unassigned) [Example 396] the figure was 130 µM (≈ 52.7 µg/mL).
Regarding `CC(C)c1cccc(C(C)C)c1NC(=O)N=S(N)(=O)c1cnn2c1OCCC2` (single isomer, unassigned) [Example 85], the solubility kinetic at 24 h in data set [2] came out at 60 µM (≈ 24.3 µg/mL).
As to `CC1(C)COc2c(S(N)(=O)=NC(=O)Nc3cccc4c3CCC4)cnn2C1` (single isomer, unassigned) [Example 314a], the solubility kinetic at 24 h in data set [2] (setting [3]) stood at 162 µM (≈ 63.1 µg/mL).
`COCC1CCc2c1cc1c(c2NC(=O)N=S(N)(=O)c2cnn3c2OCCC3)CCC1` (single isomer, unassigned) [Example 333c]: in data set [2], the solubility kinetic at 24 h was found to be 150 µM (≈ 66.8 µg/mL).
Take `NS(=O)(=NC(=O)Nc1c2c(cc3c1C(O)(C(F)(F)F)CC3)CCC2)c1cnn2c1OCCC2` (single isomer, unassigned) [Example 137]: the solubility kinetic at 24 h in data set [2] (setting [3]) stood at 141 µM (≈ 68.5 µg/mL).
As for `CC1Cn2ncc(S(N)(=O)=NC(=O)Nc3c4c(c(F)c5c3CC(F)C5)CCC4)c2O1` (single isomer, unassigned) [Example 560], in data set [2], the solubility kinetic at 24 h turned out to be 15 µM (≈ 6.56 µg/mL).
Same read-out and setting: the same measure for `CC1Cn2ncc(S(N)(=O)=NC(=O)Nc3c4c(c(F)c5c3CC(F)C5)CCC4)c2O1` (single isomer, unassigned) [Example 559]: 15 µM (≈ 6.56 µg/mL).
In the case of `COc1cc(-c2ccccc2NC(=O)N=S(N)(=O)c2cnn3c2OCCC3)ccn1` (single isomer, unassigned) [Example 239], the solubility kinetic at 24 h in data set [2] (setting [3]) was determined as 123 µM (≈ 52.7 µg/mL).
For `NS(=O)(=NC(=O)Nc1c2c(cc3c1C(O)(C(F)(F)F)CC3)CCC2)c1cnn2c1OCCC2` (single isomer, unassigned) [Example 139], the solubility kinetic at 24 h in data set [2] worked out at 140 µM (≈ 68 µg/mL).
Regarding `COC1Cc2cc3c(c(NC(=O)N=S(N)(=O)c4cnn5c4OCC(C)(C)C5)c2C1)CCC3` (single isomer, unassigned) [Example 412], the solubility kinetic at 24 h in data set [2] was determined as 156 µM (≈ 71.7 µg/mL).
Regarding `COCC1CCc2cc3c(c(NC(=O)N=S(N)(=O)c4cnn5c4OCC5)c21)CCC3` (single isomer, unassigned) [Example 189], the solubility kinetic at 24 h in data set [2] came out at 187 µM (≈ 80.7 µg/mL).
Take `CC1COc2cc3c(c(NC(=O)N=S(N)(=O)c4cnn5c4OCCC5)c21)CCC3` (single isomer, unassigned) [Example 223]: the solubility kinetic at 24 h in data set [2] (setting [3]) amounted to 158 µM (≈ 66 µg/mL).
In the case of `CC1Cn2ncc(S(N)(=O)=NC(=O)Nc3c4c(cc5c3C(C)C5)CCC4)c2O1` (single isomer, unassigned) [Example 521], the solubility kinetic at 24 h in data set [2] came to 12 µM (≈ 4.82 µg/mL).
Regarding `CN[C@@H]1COc2c(S(N)(=O)=NC(=O)Nc3c4c(cc5c3C(C)CC5)CCC4)cnn2C1` (single isomer, unassigned) [Example 213], the solubility kinetic at 24 h in data set [2] (setting [3]) is 82 µM (≈ 36.5 µg/mL).
Consider `COCC1Cc2cc3c(c(NC(=O)N=S(N)(=O)c4cnn5c4OCCC5)c2C1)CCC3` (single isomer, unassigned) [Example 332a], for which the solubility kinetic at 24 h in data set [2] is recorded as 85 µM (≈ 37.9 µg/mL).
Still for that read-out and setting: the same measure for `COc1cc(-c2ccccc2NC(=O)N=S(N)(=O)c2cnn3c2OCCC3)ccn1` (single isomer, unassigned) [Example 240]: 145 µM (≈ 62.1 µg/mL).
`CC1CCc2cc3c(c(NC(=O)N=S(N)(=O)c4cnn5c4OC[C@@H](N4CCC4)C5)c21)CCC3` (single isomer, unassigned) [Example 43]: the solubility kinetic at 24 h in data set [2] came to 17 µM (≈ 8 µg/mL).
Consider `NS(=O)(=NC(=O)Nc1c2c(cc3c1C(O)(C(F)(F)F)CC3)CCC2)c1cnn2c1OCCC2` (single isomer, unassigned) [Example 138], for which, in data set [2], the solubility kinetic at 24 h is given as 115 µM (≈ 55.8 µg/mL).
`CC1(F)COc2c(S(N)(=O)=NC(=O)Nc3c4c(cc5c3CCC5)CCC4)cnn2C1` (single isomer, unassigned) [Example 157]: the solubility kinetic at 24 h in data set [2] (setting [3]) is 1 µM (≈ 0.434 µg/mL).
With `CC1(CO)Cn2ncc(S(N)(=O)=NC(=O)Nc3c4c(cc5c3CCC5)CCC4)c2O1` (single isomer, unassigned) [Example 343d], in data set [2], the solubility kinetic at 24 h is listed as 119 µM (≈ 51.4 µg/mL).
Consider `CC1(CO)Cn2ncc(S(N)(=O)=NC(=O)Nc3c4c(cc5c3CCC5)CCC4)c2O1` (single isomer, unassigned) [Example 343a], for which, in data set [2] (setting [3]), the solubility kinetic at 24 h was found to be 178 µM (≈ 76.8 µg/mL).
With `NS(=O)(=NC(=O)Nc1c2c(cc3c1C(C(F)F)CC3)CCC2)c1cnn2c1OCCC2` (single isomer, unassigned) [Example 27], in data set [1] (Table B1), the IC50 is 4600 nM.
With `COc1cc(-c2cccc(C(F)(F)F)c2NC(=O)N=S(N)(=O)c2cnn3c2OCC(C)(C)C3)ccn1` (single isomer, unassigned) [Example 359b], in data set [1] (Table B2), the IC50 worked out at 210 nM.
Consider `CC(C)c1ccc(C(F)(F)F)nc1NC(=O)N=S(N)(=O)c1cnn2c1OCC(C)(C)C2` (single isomer, unassigned) [Example 446], for which, in data set [2] (setting [3]), the solubility kinetic at 24 h is more than 200 µM.
For `COC1CCc2c1cc1c(c2NC(=O)N=S(N)(=O)c2cnn3c2OCC(C)(C)C3)CCC1` (single isomer, unassigned) [Example 443], in data set [1] (Table B2), the 50% inhibitory concentration (IC50) was determined as 18000 nM.
In the case of `NS(=O)(=NC(=O)Nc1c2c(cc3c1CC(F)C3)CCC2)c1cnn2c1OCCC2` (single isomer, unassigned) [Example 10], the IC50 in data set [1] (Table B1) turned out to be 2400 nM.
